In US6849664B2, “Process for disposing biocide-containing cooling water” (priority 2001, dated 2005):
Read-outs that look alike come from different tables or passages of the source.

Experiments:
[1] = system: bacterial inoculum; settings: for neutralizing 10 ppm of glutaraldehyde: two moles of nitrogen-containing compound to glutaraldehyde
Procedure: A series of different nitrogen-containing compounds were evaluated as materials to neutralize glutaraldehyde. For these experiments, 10:1 ratio of minimal media to n-C16 were prepared, mixed with 10 ppm of glutaraldehyde (G) and evaluated in 250 ml flasks.
Two moles of each of the nitrogen-containing compound to glutaraldehyde were added to the flasks. Then 10 μl of the bacterial inoculum was added to each flask.
Control samples were also run with the nitrogen-containing compound and without the glutaraldehyde. These control samples permitted an assessment of the toxicity of the nitrogen-containing compound.

[2] = system: Larval Sheepshead Minnow (Cyprinodon variegatus); settings: in vivo, 96 h
Procedure: […]. EPA/600/4-90/027F Washington, D.C.) conducted at Pacific Eco-Risk Laboratories, Martinez, Calif.
LOEC is the Lowest Observable Effect Concentration and is defined as the minimum concentration where mortality is observed for the test species. […] LC-50, the concentration that will cause mortality of 50% of the organisms tested within 96 h, is a calculated value based on all observations.

[3] = system: bacterial inoculum; assay: Neutralization of biocides with MEA, microbial growth in minimal media / Fischer-Tropsch diesel fuel; format: cell-based
Procedure: Growth Media: A standard minimal media containing only inorganic nutrients required for bacterial growth was used. The medium used to supply inorganic micronutrients to the growing culture of alkane degrading organisms consists of 0.1 g/L MgSO4.7H2O, 0.5 g/L NaNO3, 0.02 mM FeSO4 and 0.63 g/L K2HPO4 and 0.19 g/L KH2PO4 to achieve a pH of 7 to 7.3.
Test Conditions: 90 ml of media and 10 ml of the product to be tested (n-C16) were added to 250 ml flasks. […] After inoculation, the flasks were placed on a shaker-table (135 rpm) at room temperature in contact with air and observed daily.
In all experiments, a 10:1 ratio of minimal media to Fischer-Tropsch diesel fuel were prepared and evaluated in 250 ml flasks.

[4] = system: bacteria; assay: Neutralization of glutaraldehyde with H2O2 and NH4Cl, microbial growth test; format: cell-based
Procedure: […]. In this experiment, minimal medium, containing 1, 10 or 100 ppm of glutaraldehyde, were mixed with a five times molar excess of H2O2 or NH4Cl. Hydrocarbonaceous product and bacteria were then added to the mixture. While microbial growth was observed after 5 days in control samples containing no glutaraldehyde, no growth was observed after 14 days in samples containing glutaraldehyde and H2O2 or NH4Cl. […].

[5] = 10 ppm glutaraldehyde with two moles of the nitrogen-containing compound to glutaraldehyde, time 0 days
[6] = 10 ppm glutaraldehyde with two moles of the nitrogen-containing compound to glutaraldehyde, time 1 days
[7] = 10 ppm glutaraldehyde with two moles of the nitrogen-containing compound to glutaraldehyde, time 2 days
[8] = 10 ppm glutaraldehyde with two moles of the nitrogen-containing compound to glutaraldehyde, time 6 days
[9] = 10 ppm glutaraldehyde with two moles of the nitrogen-containing compound to glutaraldehyde, time 7 days
[10] = 10 ppm glutaraldehyde with two moles of the nitrogen-containing compound to glutaraldehyde, time 9 days
[11] = 10 ppm glutaraldehyde with two moles of the nitrogen-containing compound to glutaraldehyde, time 13 days
[12] = 10 ppm glutaraldehyde with two moles of the nitrogen-containing compound to glutaraldehyde, time 20 days
[13] = control: nitrogen-containing compound without the glutaraldehyde, time 0 days
[14] = control: nitrogen-containing compound without the glutaraldehyde, time 1 days
[15] = control: nitrogen-containing compound without the glutaraldehyde, time 2 days
[16] = control: nitrogen-containing compound without the glutaraldehyde, time 6 days
[17] = control: nitrogen-containing compound without the glutaraldehyde, time 7 days
[18] = control: nitrogen-containing compound without the glutaraldehyde, time 9 days
[19] = control: nitrogen-containing compound without the glutaraldehyde, time 13 days
[20] = control: nitrogen-containing compound without the glutaraldehyde, time 20 days

OCCNCCO [DEA, Diethanolamine]
toxicity of the nitrogen-containing compound to microbial growth [1]: not excessively toxic
Growth / No Growth [1, 5]: −
Growth / No Growth [1, 6]: +
Growth / No Growth [1, 7]: +
Growth / No Growth [1, 8]: +
Growth / No Growth [1, 9]: +
Growth / No Growth [1, 10]: +
Growth / No Growth [1, 11]: +
Growth / No Growth [1, 12]: +
Growth / No Growth [1, 13]: −
Growth / No Growth [1, 14]: −
Growth / No Growth [1, 15]: −
Growth / No Growth [1, 16]: +
Growth / No Growth [1, 17]: +
Growth / No Growth [1, 18]: +
Growth / No Growth [1, 19]: +
Growth / No Growth [1, 20]: −
neutralizing 10 ppm of glutaraldehyde [1]: effective

O=CCCCC=O [Glutaraldehyde, glutaraldehyde]
LOEC [2]: 25 mg/L
NOEC [2]: 13 mg/L
Growth / No Growth ([3]; 1 ppm G, time 0 days): −
Growth / No Growth ([3]; 1 ppm G, time 1 days): −
Growth / No Growth ([3]; 1 ppm G, time 2 days): −
Growth / No Growth ([3]; 1 ppm G, time 3 days): −
Growth / No Growth ([3]; 1 ppm G, time 7 days): −
Growth / No Growth ([3]; 1 ppm G, time 9 days): +
Growth / No Growth ([3]; 1 ppm G, time 14 days): +
Growth / No Growth ([3]; 10 ppm G, time 0 days): −
Growth / No Growth ([3]; 10 ppm G, time 1 days): −
Growth / No Growth ([3]; 10 ppm G, time 2 days): −
Growth / No Growth ([3]; 10 ppm G, time 3 days): −
Growth / No Growth ([3]; 10 ppm G, time 7 days): −
Growth / No Growth ([3]; 10 ppm G, time 9 days): −
Growth / No Growth ([3]; 10 ppm G, time 14 days): −
Growth / No Growth ([3]; 100 ppm G, time 0 days): −
Growth / No Growth ([3]; 100 ppm G, time 1 days): −
Growth / No Growth ([3]; 100 ppm G, time 2 days): −
Growth / No Growth ([3]; 100 ppm G, time 3 days): −
Growth / No Growth ([3]; 100 ppm G, time 7 days): −
Growth / No Growth ([3]; 100 ppm G, time 9 days): −
Growth / No Growth ([3]; 100 ppm G, time 14 days): −

OO [H2O2]
microbial growth [4]: no growth

NCCO [MEA, monoethanolamine]
LOEC [2]: 1700 mg/L
NOEC [2]: 1000 mg/L
toxicity of the nitrogen-containing compound to microbial growth [1]: not excessively toxic
Growth / No Growth [1, 5]: −
Growth / No Growth [1, 6]: −
Growth / No Growth [1, 7]: −
Growth / No Growth [1, 8]: +
Growth / No Growth [1, 9]: +
Growth / No Growth [1, 10]: +
Growth / No Growth [1, 11]: +
Growth / No Growth [1, 12]: +
Growth / No Growth [1, 13]: −
Growth / No Growth [1, 14]: −
Growth / No Growth [1, 15]: −
Growth / No Growth [1, 16]: −
Growth / No Growth [1, 17]: +
Growth / No Growth [1, 18]: +
Growth / No Growth [1, 19]: +
Growth / No Growth [1, 20]: +
neutralizing 10 ppm of glutaraldehyde [1]: effective

Cl.N [NH4Cl]
microbial growth [4]: no growth

Nc1ccccc1 [aniline, Aniline]
toxicity of the nitrogen-containing compound to microbial growth [1]: excessively toxic
Growth / No Growth [1, 5]: −
Growth / No Growth [1, 6]: −
Growth / No Growth [1, 7]: −
Growth / No Growth [1, 8]: −
Growth / No Growth [1, 9]: −
Growth / No Growth [1, 10]: −
Growth / No Growth [1, 11]: −
Growth / No Growth [1, 12]: −
Growth / No Growth [1, 13]: −
Growth / No Growth [1, 14]: −
Growth / No Growth [1, 15]: −
Growth / No Growth [1, 16]: −
Growth / No Growth [1, 17]: −
Growth / No Growth [1, 18]: −
Growth / No Growth [1, 19]: −
Growth / No Growth [1, 20]: −

CCNCC [diethylamine, Diethylamine]
toxicity of the nitrogen-containing compound to microbial growth [1]: not excessively toxic
Growth / No Growth [1, 5]: −
Growth / No Growth [1, 6]: −
Growth / No Growth [1, 7]: −
Growth / No Growth [1, 8]: +
Growth / No Growth [1, 9]: +
Growth / No Growth [1, 10]: +
Growth / No Growth [1, 11]: +
Growth / No Growth [1, 12]: +
Growth / No Growth [1, 13]: −
Growth / No Growth [1, 14]: −
Growth / No Growth [1, 15]: −
Growth / No Growth [1, 16]: +
Growth / No Growth [1, 17]: +
Growth / No Growth [1, 18]: +
Growth / No Growth [1, 19]: +
Growth / No Growth [1, 20]: +
neutralizing 10 ppm of glutaraldehyde [1]: effective
